Results published in US9701672B2, “Dihydropyridinone MGAT2 inhibitors for use in the treatment of metabolic disorders” (BRISTOL-MYERS SQUIBB COMPANY, priority 2014, dated 2017).

Biological target: human MGAT-2 (Homo sapiens (Human), UniProt Q3SYC2)
Experiment: MGAT LCMS assay (h-MGAT LCMS)
Type: biochemical
Protocol: The MGAT enzyme reactions were performed in Corning FALCON® 96-well polypropylene plates, in a total volume of 60 μL of 50 mM potassium phosphate buffer pH 7.4, containing a final concentration of 100 μM 2-oleoylglycerol, 15 μM oleoyl-coenzyme A and 0.0013 μg/μL human or mouse MGAT-2 or 0.0026 μg/μL rat recombinant MGAT-2 membranes expressed in Sf9 cells. Assay plates were run through a fully automated robotics system and shaken for 5 seconds every minute for a total 10 minutes. The reactions were then quenched with 120 μL of ice cold methanol containing 1 μg/mL 1,2-distearoyl-rac-glycerol as the internal standard. Plates were shaken for 2 minutes and spun down to remove protein precipitation. After the spin, samples were transferred to LC/MS compatible PCR plates. For LC/MS analysis, a ThermoFisher Surveyor pump, utilizing a Waters […]® C8, 50×2.1 mm column, was used for the chromatography of enzyme products. The buffer system consists of 0.1% formic acid in water with a mobile phase consisting 0.1% formic acid in methanol. The shallow gradient is 90-100% mobile phase in 0.2 min with a total run time of 2.3 min. The first 0.5 minutes of each injection was diverted to waste to eliminate the presence of phosphate buffer in the enzymatic reaction. The column was run at 0.6 mL/min and a temperature of 65° C. Mass spectrometry analysis of the samples was performed on a ThermoFisher Quantum Triple quad utilizing APCI (+) as the mode of ionization. Data was acquired in Single Ion Monitoring (SIM) mode analyzing Diolein=m/z 603.6 (PRODUCT) and 1,2-distearoyl-rac-glycerol (IS)=m/z 607.6. The ratio of Diolein to internal standard (Peak Area Ratio) is utilized to calculate IC50 values.
“NT” denotes “Not tested”.

[1] = human MGAT2 membranes expressed in Sf9 cells, 100 μM 2-oleoylglycerol, 15 μM oleoyl-coenzyme A

Sequence of human MGAT-2 (Q3SYC2 whole entry): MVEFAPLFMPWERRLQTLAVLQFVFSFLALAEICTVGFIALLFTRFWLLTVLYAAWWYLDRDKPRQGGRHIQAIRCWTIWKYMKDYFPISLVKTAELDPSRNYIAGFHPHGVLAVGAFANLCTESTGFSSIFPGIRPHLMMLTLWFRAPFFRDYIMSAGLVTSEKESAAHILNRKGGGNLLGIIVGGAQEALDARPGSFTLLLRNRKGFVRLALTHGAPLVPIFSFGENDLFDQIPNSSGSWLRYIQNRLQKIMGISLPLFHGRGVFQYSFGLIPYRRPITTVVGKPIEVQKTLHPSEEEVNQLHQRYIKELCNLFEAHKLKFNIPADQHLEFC

SMILES | IC50 [1] [nM] | IC50 (human MGAT2) [nM]
O=C1N[C@@](c2ccc(OCCCC(F)(F)F)cc2)(C(F)(F)F)CC(c2ccc(C3CC3)s2)=C1c1nnn[nH]1 [Example 1, (S)-4-(5-Cyclopropylthiophen-2-yl)-3-(1H-tetrazol-5-yl)-6-(4-(4,4,4-trifluorobutoxy)phenyl)-6-(trifluoromethyl)-5,6-dihydropyridin-2(1H)-one] | 2.5 | 
Cc1ccc(C2=C(c3nnn[nH]3)C(=O)N[C@@](c3ccc(OCCCC(F)(F)F)cc3)(C(F)(F)F)C2)s1 [Example 2] | 41 | 
O=C1N[C@@](c2ccc(OCCCC(F)(F)F)cc2)(C(F)(F)F)CC(c2ccc(Cl)s2)=C1c1nnn[nH]1 [Example 3] | 370 | 
CCCCCCC#C[C@]1(C(F)(F)F)CC(c2ccc(Cl)s2)=C(c2nnn[nH]2)C(=O)N1 [Example 5] | 7.8 | 
CCCCCCC#C[C@]1(C(F)(F)F)CC(c2ccc(Br)s2)=C(c2nnn[nH]2)C(=O)N1 [Example 6] | 2.2 | 
O=C1N[C@@](c2ccc(OCCCC(F)(F)F)cc2)(C(F)(F)F)CC(c2cc3ccccc3s2)=C1c1nnn[nH]1 [Example 7] | 9 | 
CCc1ccc(C2=C(c3nnn[nH]3)C(=O)N[C@@](c3ccc(OCCCC(F)(F)F)cc3)(C(F)(F)F)C2)s1 [Example 9] | 32 | 
Cc1csc(C2=C(c3nnn[nH]3)C(=O)N[C@@](c3ccc(OCCCC(F)(F)F)cc3)(C(F)(F)F)C2)c1 [Example 10] |  | 2000 to 10000
Cc1ccsc1C1=C(c2nnn[nH]2)C(=O)N[C@@](c2ccc(OCCCC(F)(F)F)cc2)(C(F)(F)F)C1 [Example 11] | 873 | 
CN(C)Cc1ccc(C2=C(c3nnn[nH]3)C(=O)N[C@@](c3ccc(OCCCC(F)(F)F)cc3)(C(F)(F)F)C2)s1 [Example 12] | 363 | 
Cc1cnc(C2=C(c3nnn[nH]3)C(=O)N[C@@](c3ccc(OCCCC(F)(F)F)cc3)(C(F)(F)F)C2)s1 [Example 13] | 19.4 | 
CN(C)c1ccc(C2=C(c3nnn[nH]3)C(=O)N[C@@](c3ccc(OCCCC(F)(F)F)cc3)(C(F)(F)F)C2)cn1 [Example 14] | 72.1 | 
O=C1N[C@@](c2ccc(OCCCCCC(F)(F)F)cc2F)(C(F)(F)F)CC(c2cnn(C3CC3)c2)=C1c1nnn[nH]1 [Example 15] | 14.5 | 
O=C1N[C@@](c2ccc(OCCCCCC(F)(F)F)cc2F)(C(F)(F)F)CC(c2ccn(C3CC3)n2)=C1c1nnn[nH]1 [Example 16] | 34 | 
O=C1N[C@@](c2ccc(OCCCC(F)(F)F)cc2)(C(F)(F)F)CC(c2ccn(C3CC3)n2)=C1c1nnn[nH]1 [Example 17] | 16.6 | 
O=C1N[C@@](c2ccc(OCCCC(F)(F)F)cc2)(C(F)(F)F)CC(c2cnn(C3CC3)c2)=C1c1nnn[nH]1 [Example 18] | 24.5 | 
O=C1N[C@@](c2ccc(OCCCC(F)(F)F)cc2)(C(F)(F)F)CC(c2ccn(CC3CC3)n2)=C1c1nnn[nH]1 [Example 19] | 31.8 | 
O=C1N[C@@](c2ccc(OCCCC(F)(F)F)cc2)(C(F)(F)F)CC(c2ccn(C3CCC3)n2)=C1c1nnn[nH]1 [Example 20] | 74.7 | 
O=C1N[C@@](c2ccc(OCCCC(F)(F)F)cc2)(C(F)(F)F)CC(c2ccn(CC3CCC3)n2)=C1c1nnn[nH]1 [Example 21] | 135 | 
O=C1N[C@@](c2ccc(CCCCC(F)(F)F)cc2)(C(F)(F)F)CC(c2ccn(CC3CC3)n2)=C1c1nnn[nH]1 [Example 22] | 1.2 | 
CC(C)n1ccc(C2=C(c3nnn[nH]3)C(=O)N[C@@](c3ccc(CCCCC(F)(F)F)cc3)(C(F)(F)F)C2)n1 [Example 23] | 2.1 | 
O=C1N[C@@](c2ccc(CCCCC(F)(F)F)cc2)(C(F)(F)F)CC(c2ccn(C3CC3)n2)=C1c1nnn[nH]1 [Example 24] | 22.9 | 
O=C1N[C@@](c2ccc(OCCCCCC(F)(F)F)cc2)(C(F)(F)F)CC(c2ccn(C3CC3)n2)=C1c1nnn[nH]1 [Example 25] | 102 | 
CC(C)n1ccc(C2=C(c3nnn[nH]3)C(=O)N[C@@](c3ccc(OCCCCCC(F)(F)F)cc3)(C(F)(F)F)C2)n1 [Example 26] | 43.7 | 
CC(C)(C)n1ccc(C2=C(c3nnn[nH]3)C(=O)N[C@@](c3ccc(OCCCCCC(F)(F)F)cc3)(C(F)(F)F)C2)n1 [Example 27] | 185 | 
CN(C)c1ccc(C2=C(c3nnn[nH]3)C(=O)N[C@@](c3ccc(OCCCC(F)(F)F)cc3)(C(F)(F)F)C2)nc1 [Example 28] | 17.6 | 
CCn1ccc(C2=C(c3nnn[nH]3)C(=O)N[C@@](c3ccc(OCCCCCC(F)(F)F)cc3)(C(F)(F)F)C2)n1 [Example 29] | 52.1 | 
O=C1N[C@@](c2ccc(OCCCCCC(F)(F)F)cc2)(C(F)(F)F)CC(c2ccn(CC3CC3)n2)=C1c1nnn[nH]1 [Example 30] | 2.7 | 

SMILES | IC50 [1] [nM] | IC50 (human MGAT2) [nM]
CC(C)Cn1ccc(C2=C(c3nnn[nH]3)C(=O)N[C@@](c3ccc(OCCCCCC(F)(F)F)cc3)(C(F)(F)F)C2)n1 [Example 31] | 61.9 | 
CC(C)n1nc(C2=C(c3nnn[nH]3)C(=O)N[C@@](c3ccc(OCCCCCC(F)(F)F)cc3)(C(F)(F)F)C2)c2ccccc21 [Example 33] | 950 | 
CC(C)n1cc(C2=C(c3nnn[nH]3)C(=O)N[C@@](c3ccc(OCCCCCC(F)(F)F)cc3)(C(F)(F)F)C2)c2ccccc21 [Example 34] | 86.9 | 
CN(C)c1cnc(C2=C(c3nnn[nH]3)C(=O)N[C@@](c3ccc(OCCCC(F)(F)F)cc3)(C(F)(F)F)C2)s1 [Example 35] | 11.5 | 
Cc1cnc(C2=C(c3nnn[nH]3)C(=O)N[C@@](c3ccc(OCCCC(F)(F)F)cc3)(C(F)(F)F)C2)nc1 [Example 38] | 34.3 | 
CC(C)n1ccc(C2=C(c3nnn[nH]3)C(=O)N[C@@](c3ccc(OCCCC(F)(F)F)cc3F)(C(F)(F)F)C2)n1 [Example 39] | 16.6 | 
O=C1N[C@@](c2ccc(OCCCC(F)(F)F)cc2F)(C(F)(F)F)CC(c2ccn(C3CCC3)n2)=C1c1nnn[nH]1 [Example 40] | 6.7 | 
O=C1N[C@@](c2ccc(OCCCC(F)(F)F)cc2F)(C(F)(F)F)CC(c2ccn(C3CC3)n2)=C1c1nnn[nH]1 [Example 41] | 73.6 | 
O=C1N[C@@](c2ccc(CCCCC(F)(F)F)cc2F)(C(F)(F)F)CC(c2ccn(CC3CC3)n2)=C1c1nnn[nH]1 [Example 42] | 3 | 
CCn1ccc(C2=C(c3nnn[nH]3)C(=O)N[C@@](c3ccc(OCCCC(F)(F)F)cc3F)(C(F)(F)F)C2)n1 [Example 43] | 20.2 | 
O=C1N[C@@](c2ccc(OCCCCC(F)(F)F)cc2)(C(F)(F)F)CC(c2ccc(C3CC3)s2)=C1c1nnn[nH]1 [Example 44] | 15.2 | 
CN(C)c1cnc(C2=C(c3nnn[nH]3)C(=O)N[C@@](c3ccc(OCCCCC(F)(F)F)cc3)(C(F)(F)F)C2)s1 [Example 45] | 3.5 | 
CC(C)n1ccc(C2=C(c3nnn[nH]3)C(=O)N[C@@](c3ccc(CCCCC(F)(F)F)cc3F)(C(F)(F)F)C2)n1 [Example 46] | 11.4 | 
O=C1N[C@@](c2ccc(CCCCC(F)(F)F)cc2F)(C(F)(F)F)CC(c2ccn(C3CCC3)n2)=C1c1nnn[nH]1 [Example 47] | 2.7 | 
CCn1ccc(C2=C(c3nnn[nH]3)C(=O)N[C@@](c3ccc(CCCCC(F)(F)F)cc3F)(C(F)(F)F)C2)n1 [Example 49] | 4.5 | 
CC(C)Cn1ccc(C2=C(c3nnn[nH]3)C(=O)N[C@@](c3ccc(CCCCC(F)(F)F)cc3F)(C(F)(F)F)C2)n1 [Example 50] | 9.4 | 
CC(C)Cn1ccc(C2=C(c3nnn[nH]3)C(=O)N[C@@](c3ccc(OCCCC(F)(F)F)cc3F)(C(F)(F)F)C2)n1 [Example 51] | 97.4 | 
O=C1N[C@@](c2ccc(OCCCC(F)(F)F)cc2F)(C(F)(F)F)CC(c2ccn(CC3CC3)n2)=C1c1nnn[nH]1 [Example 52] | 3.2 | 
O=C1N[C@@](c2ccc(OCCCC(F)(F)F)cc2F)(C(F)(F)F)CC(c2ccn(CC3CCC3)n2)=C1c1nnn[nH]1 [Example 53] | 44 | 
O=C1N[C@@](c2ccc(OCCCC(F)(F)F)cc2Cl)(C(F)(F)F)CC(c2ccc(C3CC3)s2)=C1c1nnn[nH]1 [Example 56] | 0.2 | 
COc1cc(OCCCC(F)(F)F)ccc1[C@]1(C(F)(F)F)CC(c2ccc(C3CC3)s2)=C(c2nnn[nH]2)C(=O)N1 [Example 57] | 1.4 | 
CCc1ccc(C2=C(c3nnn[nH]3)C(=O)N[C@@](c3ccc(OCCCCCC(F)(F)F)cc3)(C(F)(F)F)C2)s1 [Example 58] | 2.2 | 
O=C1N[C@@](c2ccc(OCCCC(F)(F)F)cc2F)(C(F)(F)F)CC(c2ncc(C3CC3)s2)=C1c1nnn[nH]1 [Example 59] | 1.4 | 
O=C1N[C@@](c2ccc(OCCCCCC(F)(F)F)cc2)(C(F)(F)F)CC(c2nc3ccccc3s2)=C1c1nnn[nH]1 [Example 60] | 137 | 
O=C1N[C@@](c2ccc(OCCCC(F)(F)F)cc2Cl)(C(F)(F)F)CC(c2ccn(C3CC3)n2)=C1c1nnn[nH]1 [Example 61] | 120 | 
CCc1cnc(C2=C(c3nnn[nH]3)C(=O)N[C@@](c3ccc(OCCCC(F)(F)F)cc3F)(C(F)(F)F)C2)s1 [Example 62] | 2.1 | 
O=C1N[C@@](c2ccc(OCCCCCC(F)(F)F)cc2Cl)(C(F)(F)F)CC(c2ncc(C3CC3)s2)=C1c1nnn[nH]1 [Example 63] | 0.7 | 
